Results on one compound are retold here after patent US20210228500A1, “CELLULAR RETINOID BINDING PROTEIN ANTAGONISTS AND USES THEREOF” (CASE WESTERN RESRVE UNIVERSITY, priority 2018, published 2021).

The test system of data set [1] is visual cycle retinoids in mouse eye. Nature of the data set: Photobleaching and visual chromophore regeneration, ocular retinoid analysis. Format: in vivo, Balb/cJ mice. To be noted: 0.25 mg 1.5 h prior to flash of light bleaching 75% of rhodopsin. As to the method:
Balb/cJ mice were dark adapted for at least 24 h before the experiment. […] After the light exposure, the mice were kept in dark and euthanized at time intervals between 1 min to 8 h. The eyes were removed, flash frozen in liquid nitrogen, and stored in −80° C. until retinoid analysis.
All procedures related to the retinoid analysis were done under dim red light. To extract retinoids, enucleated eyes were transferred to a glass/glass homogenizer and submerged in 1 mL of 40 mM hydroxylamine in a 1:1 solution of PBS/methanol (v/v). The eyes were thoroughly homogenized and incubated at RT for 20 min to allow derivatization of retinylaldehydes to retinaldehdye oximes. The retinoids were extracted with 4 mL of hexane. To facilitate the fraction separation, the samples were centrifuged at 5000 g for 10 min, after which the upper organic phase was collected in a glass test tube. The organic solvent was dried in a rotary SpeedVac, and the residual retinoids were redissolved in […] of hexanes, and subjected to HPLC analysis. Separation of retinoids was achieved on a normal phase column (Agilent Zorbax Sil 5 μm 4.6×250 mm) in a step gradient of ethyl acetate in hexane (1% for 10 min followed by 10% for 40 min at a constant flow rate of 1.5 mL min^−1). Elution of retinoids was monitored at 325 and 360 nm wavelengths. All-trans-retinyl esters, all-trans- and 11-cis-retinaldehdye oximes as well as atROL were identified based on their elution times and characteristic UV/vis spectra. Retinoids were quantified based on linear correlations between the amount of injected synthetic standards and the area under chromatographic peaks.
Next, we examined the impact of abn-CBD on vitamin A metabolism in vivo. For this purpose, we analyzed the flow of retinoids via the visual cycle during the regeneration of visual chromophore after exposure to bright light. […] The light intensity was set up to cause photoisomerization in 75% of rhodopsin as indicated by the decrease in the amount of 11-cis-retinal measured immediately after the light exposure (FIG. 7). […]

For another data set, the target named is T1, holo-CRBP1 (Homo sapiens, UniProt P09455).
T1 construct: made in house
T1 sequence (P09455 1-135): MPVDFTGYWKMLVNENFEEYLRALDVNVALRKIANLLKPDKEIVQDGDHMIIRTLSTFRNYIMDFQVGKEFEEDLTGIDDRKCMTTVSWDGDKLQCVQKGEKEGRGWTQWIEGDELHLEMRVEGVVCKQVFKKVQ
Nature of the data set: High-throughput screening for CRBP1 ligands. The data set is classed as binding. To be noted: 986 compounds at 5 μM, 1 μM holo-CRBP1. As to the method: The principle of the fluorescence binding assays described above was adapted for the HTS in a 96-well plate format. Each well contained 0.2 mL of 20 mM Tris/HCl, pH 7.4 and 1 μM of holo-CRBP1. Tested compounds from two independent libraries (Bioactive Lipid I Screening Library form Cayman Chemicals and Screen-Well Bioactive Lipid Library from Enzo Life Science, total of 986 chemicals) were delivered in dimethyl sulfoxide (DMSO) to the final concentration of 5 μM. After 15 min of incubation at room temperature (RT), the samples were excited at 285 nm, and the fluorescence signals from CRBP1 (at 350 nm) and atROL (at 480 nm) were recorded in a Flexstation3 microplate reader (Molecular Devices). Changes in the fluorescence emissions were evaluated by calculating ratio between signals at 480 and 350 nm. To eliminate false positives, only those wells in which the increase in protein fluorescence was accompanied by proportional decline in the fluorescence of atROL were considered as potential hits.
To search for compounds interacting with CRBP1, we developed an HTS strategy that minimalized experimental bias associated with investigating the binding of hydrophobic ligands to a protein specialized for interaction with small lipophilic molecules. It is based on the fluorescence properties of CRBP1 in complex with its natural ligand, atROL. […]

A short description of data set [2]: Detection and quantification of abn-CBD in the ocular tissues. Format: in vivo, Balb/cJ mice. The conditions noted are these: single dose 15 mg kg^−1 i.p. As to the method:
Balb/cJ mice were i.p. injected with 15 mg kg^−1 dose of abn-CBD. At the time points between 1 and 15 h, they were deeply anesthetized by ketamine/xylazine injection and perfused with PBS. Perfused eyes were collected and homogenized in 1 mL of PBS/methanol (v/v). During the homogenization, 100 pmol of an internal standard (3d-abn-CBD) was added. The samples were extracted with 4 mL of hexane and centrifuged at 15,000 g for […] at 4° C. The organic solvent was transferred to glass test tubes and dried in a Savant speedvac concentrator (Thermo Fisher Scientific). The extracted compounds were dissolved in 0.3 mL of ethanol and subjected to LC/MS analysis and quantification as described above.

Entries after “also recorded” stand apart in the source; their conditions may differ.

A word on the half-life: it is how long it takes for the measured level to halve. The low end stands for fast loss, the high end for slow loss.

For `C=C(C)[C@@H]1CCC(C)=C[C@H]1c1c(O)cc(O)cc1CCCCC` [abn-CBD, 4-[(1R,6R)-3-Methyl-6-prop-1-en-2-ylcyclohex-2-en-1-yl]-5-pentylbenzene-1,3-diol], in data set [1], the “atROL level during chromophore regeneration” value is given as “transient accumulation of atROL”, the “rate of 11-cis-retinaldehyde regeneration” value is “noticeably slower” and the “rate of all-trans-retinaldehyde clearance vs control” value is listed as “no differences”. The HTS result at holo-CRBP1 is “unique hit; also recorded: single hit”. This compound gave a half-life in data set [2] (Balb/cJ, mouse, eye (PBS-perfused, homogenate), ip) of approximately 7 h. Also, the “time of maximum ocular level after the injection” value in data set [2] was 2 h. Besides, the “ocular level, maximum value” in data set [2] (PBS-perfused eyes) came out at 58 pmol/eye.
